Measured values reported in publication PMC5218480 (PLoS ONE, 2017).

Tested on: MV-4-11 cells
Assay: Gene expression microarray analysis (Affymetrix PrimeView) and GSEA
Assay type: cell-based, human
Set-up: RFU PODN (11730768_x_at) / Fold change /veh PODN (11730768_x_at) / RFU LINC00158 (11744669_a_at) / Fold change /veh LINC00158 (11744669_a_at) / RFU DUSP10 (11751237_a_at) / Fold change /veh DUSP10 (11751237_a_at) / RFU ID3 (11757404_x_at) / Fold change /veh ID3 (11757404_x_at) / RFU PLEKHG5 (11737974_s_at) / Fold change /veh PLEKHG5 (11737974_s_at) / RFU LRRC4B (11730491_at) / Fold change /veh LRRC4B (11730491_at) / RFU GIMAP4 (11747438_a_at) / Fold change /veh GIMAP4 (11747438_a_at) / RFU KRT8 (11758183_x_at) / Fold change /veh KRT8 (11758183_x_at) / RFU CNN1 (11734310_a_at) / Fold change /veh CNN1 (11734310_a_at) / RFU VPS37D (11726825_at) / Fold change /veh VPS37D (11726825_at) / RFU C10orf10 (11716522_x_at) / Fold change /veh C10orf10 (11716522_x_at) / RFU KIR2DL2 /// KIR2DL4 /// KIR2DL5A /// KIR2DL5B /// KIR2DS1 /// KIR2DS2 /// KIR2DS3 /// KIR2DS4 /// KIR3DL3 /// KIR3DL3 /// KIR3DS1 (11738374_at) / Fold change /veh KIR2DL2 /// KIR2DL4 /// KIR2DL5A /// KIR2DL5B /// KIR2DS1 /// KIR2DS2 /// KIR2DS3 /// KIR2DS4 /// KIR3DL3 /// KIR3DL3 /// KIR3DS1 (11738374_at) / RFU C1QL1 (11718748_at) / Fold change /veh C1QL1 (11718748_at) / RFU TMPRSS4 (11747572_a_at) / Fold change /veh TMPRSS4 (11747572_a_at) / RFU HAMP (11756126_x_at) / Fold change /veh HAMP (11756126_x_at) / RFU RNFT2 (11725882_a_at) / Fold change /veh RNFT2 (11725882_a_at) / RFU NR4A2 (11747474_a_at) / Fold change /veh NR4A2 (11747474_a_at) / RFU ABCC12 (11746883_a_at) / Fold change /veh ABCC12 (11746883_a_at) / RFU TMEM136 (11760407_x_at) / Fold change /veh TMEM136 (11760407_x_at) / RFU CLDN22 /// WWC2 (11732394_at) / Fold change /veh CLDN22 /// WWC2 (11732394_at) / RFU HLA-DPB1 (11760878_x_at) / Fold change /veh HLA-DPB1 (11760878_x_at) / RFU SPINT1 (11716480_a_at) / Fold change /veh SPINT1 (11716480_a_at) / RFU GAP43 (11754022_s_at) / Fold change /veh GAP43 (11754022_s_at) / RFU A4GNT (11735810_at) / Fold change /veh A4GNT (11735810_at) / RFU PRB3 (11715151_x_at) / Fold change /veh PRB3 (11715151_x_at) / RFU TUBB4B (11761932_at) / Fold change /veh TUBB4B (11761932_at) / RFU CAPN14 (11732068_a_at) / Fold change /veh CAPN14 (11732068_a_at) / RFU TMCC2 (11721928_a_at) / Fold change /veh TMCC2 (11721928_a_at) / RFU IRGQ (11745062_a_at) / Fold change /veh IRGQ (11745062_a_at) / RFU FAM174B (11720279_a_at) / Fold change /veh FAM174B (11720279_a_at) / RFU TMPRSS4 (11748680_a_at) / Fold change /veh TMPRSS4 (11748680_a_at) / RFU FAM212B (11763350_a_at) / Fold change /veh FAM212B (11763350_a_at) / RFU PLEKHG5 (11743358_a_at) / Fold change /veh PLEKHG5 (11743358_a_at) / RFU ZSCAN30 (11745921_a_at) / Fold change /veh ZSCAN30 (11745921_a_at) / RFU CMKLR1 (11741424_a_at) / Fold change /veh CMKLR1 (11741424_a_at) / RFU LOC101060620 /// MAPK8IP1 (11723275_at) / Fold change /veh LOC101060620 /// MAPK8IP1 (11723275_at) / RFU SPTSSB (11747773_x_at) / Fold change /veh SPTSSB (11747773_x_at) / RFU PRSS12 (11739890_at) / Fold change /veh PRSS12 (11739890_at) / RFU BIN1 (11741810_x_at) / Fold change /veh BIN1 (11741810_x_at) / RFU WNT11 (11732464_a_at) / Fold change /veh WNT11 (11732464_a_at) / RFU C10orf10 (11716521_a_at) / Fold change /veh C10orf10 (11716521_a_at) / RFU C5orf56 (11738089_at) / Fold change /veh C5orf56 (11738089_at) / RFU CYB561 (11721691_x_at) / Fold change /veh CYB561 (11721691_x_at) / RFU ANKRD19P (11752326_a_at) / Fold change /veh ANKRD19P (11752326_a_at) / RFU OR2T12 /// OR2T33 /// OR2T8 (11738714_s_at) / Fold change /veh OR2T12 /// OR2T33 /// OR2T8 (11738714_s_at) / RFU VCAN (11748164_a_at) / Fold change /veh VCAN (11748164_a_at) / RFU JSRP1 (11732532_at) / Fold change /veh JSRP1 (11732532_at) / RFU KRTAP10-11 (11738290_x_at) / Fold change /veh KRTAP10-11 (11738290_x_at) / RFU MYO3A (11730013_a_at) / Fold change /veh MYO3A (11730013_a_at) / RFU EBF3 (11725865_a_at) / Fold change /veh EBF3 (11725865_a_at) / RFU CAMK2N1 (11719241_x_at) / Fold change /veh CAMK2N1 (11719241_x_at) / RFU C5orf56 (11738088_a_at) / Fold change /veh C5orf56 (11738088_a_at) / RFU OLFML3 (11715873_a_at) / Fold change /veh OLFML3 (11715873_a_at) / RFU LOC100653217 /// NTM (11731650_a_at) / Fold change /veh LOC100653217 /// NTM (11731650_a_at) / RFU MAPK11 (11762145_a_at) / Fold change /veh MAPK11 (11762145_a_at) / RFU FIZ1 (11724087_x_at) / Fold change /veh FIZ1 (11724087_x_at) / RFU OASL (11726364_x_at) / Fold change /veh OASL (11726364_x_at) / RFU SOX15 (11748057_x_at) / Fold change /veh SOX15 (11748057_x_at) / RFU CD79A (11719716_a_at) / Fold change /veh CD79A (11719716_a_at) / RFU HIST1H1D (11736915_at) / Fold change /veh HIST1H1D (11736915_at) / RFU CASKIN2 (11723855_a_at) / Fold change /veh CASKIN2 (11723855_a_at) / RFU LOC730098 (11760151_x_at) / Fold change /veh LOC730098 (11760151_x_at) / RFU OR4N2 (11742367_at) / Fold change /veh OR4N2 (11742367_at) / RFU PRRT2 (11749266_a_at) / Fold change /veh PRRT2 (11749266_a_at) / RFU SNX32 (11753110_a_at) / Fold change /veh SNX32 (11753110_a_at) / RFU CDHR5 (11726645_a_at) / Fold change /veh CDHR5 (11726645_a_at) / RFU RCAN1 (11760418_a_at) / Fold change /veh RCAN1 (11760418_a_at) / RFU FAM167A (11723789_a_at) / Fold change /veh FAM167A (11723789_a_at) / RFU FAM26E (11764081_at) / Fold change /veh FAM26E (11764081_at) / RFU ISYNA1 (11749810_s_at) / Fold change /veh ISYNA1 (11749810_s_at) / RFU ACY1 (11761880_at) / Fold change /veh ACY1 (11761880_at) / RFU 11764098_at / Fold change /veh 11764098_at / RFU SAMD14 (11745864_x_at) / Fold change /veh SAMD14 (11745864_x_at) / RFU NPB (11741838_a_at) / Fold change /veh NPB (11741838_a_at) / RFU TMPRSS6 (11731388_a_at) / Fold change /veh TMPRSS6 (11731388_a_at) / RFU KRTAP10-2 (11738614_at) / Fold change /veh KRTAP10-2 (11738614_at) / RFU ARHGAP8 /// PRR5-ARHGAP8 (11727945_x_at) / Fold change /veh ARHGAP8 /// PRR5-ARHGAP8 (11727945_x_at) / RFU KRTAP5-7 /// NADSYN1 (11734609_at) / Fold change /veh KRTAP5-7 /// NADSYN1 (11734609_at) / RFU RASL12 (11751679_a_at) / Fold change /veh RASL12 (11751679_a_at) / RFU CDKN2B (11736163_a_at) / Fold change /veh CDKN2B (11736163_a_at) / RFU PRF1 (11729649_at) / Fold change /veh PRF1 (11729649_at) / RFU, ZNF638 /// ZNF638-IT1 / Fold change vs veh, ZNF638 /// ZNF638-IT1 / RFU, PANK3 / Fold change vs veh, PANK3 / RFU, SH3YL1 / Fold change vs veh, SH3YL1 / RFU, ZEB2 / Fold change vs veh, ZEB2 / RFU, NRIP1 / Fold change vs veh, NRIP1 / RFU, PTTG1IP / Fold change vs veh, PTTG1IP / RFU, CAPN2 / Fold change vs veh, CAPN2 / RFU, MED14 / Fold change vs veh, MED14 / RFU, SNORA58 / Fold change vs veh, SNORA58 / RFU, C1orf63 / Fold change vs veh, C1orf63 / RFU, LRRFIP1 / Fold change vs veh, LRRFIP1 / RFU, NDUFAF7 / Fold change vs veh, NDUFAF7 / RFU, SLC12A2 / Fold change vs veh, SLC12A2 / RFU, IBTK / Fold change vs veh, IBTK / RFU, ESF1 / Fold change vs veh, ESF1 / Fold change vs veh, TMEM50B / RFU, TAOK1 / Fold change vs veh, TAOK1 / RFU, ACBD3 / Fold change vs veh, ACBD3 / RFU, TMA16 / Fold change vs veh, TMA16 / RFU, RWDD3 / Fold change vs veh, RWDD3 / RFU, BCAT1 / Fold change vs veh, BCAT1 / RFU, EDEM3 / Fold change vs veh, EDEM3 / RFU, TMEM33 / Fold change vs veh, TMEM33 / RFU, WDR75 / Fold change vs veh, WDR75 / RFU, AHCTF1 / Fold change vs veh, AHCTF1 / RFU, TFRC / Fold change vs veh, TFRC / RFU, ZDHHC17 / Fold change vs veh, ZDHHC17 / RFU, NOM1 / Fold change vs veh, NOM1 / RFU, ARL8B / Fold change vs veh, ARL8B / RFU, ZBTB11 / Fold change vs veh, ZBTB11 / RFU, TAMM41 / Fold change vs veh, TAMM41 / RFU, KIAA1704 /// LOC100996395 / Fold change vs veh, KIAA1704 /// LOC100996395 / RFU, ING1 / Fold change vs veh, ING1 / RFU, TRMT61B / Fold change vs veh, TRMT61B / RFU, FUBP3 / Fold change vs veh, FUBP3 / RFU, TP53 / Fold change vs veh, TP53 / RFU, TNKS2 / Fold change vs veh, TNKS2 / RFU, ZFP14 / Fold change vs veh, ZFP14 / RFU, ACTR2 / Fold change vs veh, ACTR2 / RFU, PPP3R1 / Fold change vs veh, PPP3R1 / RFU, PIK3R1 / Fold change vs veh, PIK3R1 / RFU, HNRNPA1 / Fold change vs veh, HNRNPA1 / RFU, RNF170 / Fold change vs veh, RNF170 / RFU, ZNF28 / Fold change vs veh, ZNF28 / RFU, RNGTT / Fold change vs veh, RNGTT / RFU, OGT / Fold change vs veh, OGT / RFU, BRD1 / Fold change vs veh, BRD1 / RFU, MARS / Fold change vs veh, MARS / RFU, ZNF655 / Fold change vs veh, ZNF655 / RFU, FAHD1 / Fold change vs veh, FAHD1 / RFU, BDP1 / Fold change vs veh, BDP1 / RFU, LRRCC1 / Fold change vs veh, LRRCC1 / RFU, ARID1A / Fold change vs veh, ARID1A / RFU, ZNF146 / Fold change vs veh, ZNF146 / RFU, ZNF330 / Fold change vs veh, ZNF330 / RFU, GPN3 / Fold change vs veh, GPN3 / RFU, C9orf123 / Fold change vs veh, C9orf123 / RFU, N4BP2L2 / Fold change vs veh, N4BP2L2 / RFU, ARFIP1 / Fold change vs veh, ARFIP1 / RFU, FAM179B / Fold change vs veh, FAM179B / RFU, BCL10 / Fold change vs veh, BCL10 / RFU, UHRF1BP1L / Fold change vs veh, UHRF1BP1L / RFU, BET1 / Fold change vs veh, BET1 / RFU, CNOT2 / Fold change vs veh, CNOT2 / RFU, ZNF268 / Fold change vs veh, ZNF268 / Fold change vs veh, ZNF507 / RFU, DGCR2 / Fold change vs veh, DGCR2 / RFU, WDSUB1 / Fold change vs veh, WDSUB1 / Fold change vs veh, HSP90B1 /// MIR3652 / RFU, ADSS / Fold change vs veh, ADSS / RFU, GK / Fold change vs veh, GK / RFU, ZNF148 / Fold change vs veh, ZNF148 / RFU, TAF9 / Fold change vs veh, TAF9 / RFU, SLC1A5 / Fold change vs veh, SLC1A5 / RFU, SLMO2 / Fold change vs veh, SLMO2 / RFU, ABCC4 / Fold change vs veh, ABCC4 / RFU, LOC101060439 /// RAP1B / Fold change vs veh, LOC101060439 /// RAP1B / RFU, RFX7 / Fold change vs veh, RFX7 / RFU, GTPBP10 / Fold change vs veh, GTPBP10 / RFU, CNEP1R1 / Fold change vs veh, CNEP1R1 / RFU, BIVM-ERCC5 /// ERCC5 / Fold change vs veh, BIVM-ERCC5 /// ERCC5 / RFU, ILF3 / Fold change vs veh, ILF3 / RFU 11762660_at / Fold change /veh 11762660_at / RFU VCAN (11757783_s_at) / Fold change /veh VCAN (11757783_s_at) / RFU DDX43 (11728927_at) / Fold change /veh DDX43 (11728927_at) / RFU KRT8 (11758188_x_at) / Fold change /veh KRT8 (11758188_x_at) / RFU NKD1 (11759106_at) / Fold change /veh NKD1 (11759106_at) / RFU SRD5A1 (11742802_a_at) / Fold change /veh SRD5A1 (11742802_a_at) / RFU TPSAB1 /// TPSB2 (11721975_s_at) / Fold change /veh TPSAB1 /// TPSB2 (11721975_s_at) / RFU GSTM3 (11746129_a_at) / Fold change /veh GSTM3 (11746129_a_at) / RFU IL23R (11737362_x_at) / Fold change /veh IL23R (11737362_x_at) / RFU TMEM51 (11727254_a_at) / Fold change /veh TMEM51 (11727254_a_at) / RFU PIWIL2 (11732686_x_at) / Fold change /veh PIWIL2 (11732686_x_at) / RFU ORM1 (11744905_x_at) / Fold change /veh ORM1 (11744905_x_at) / RFU CCDC152 (11743942_at) / Fold change /veh CCDC152 (11743942_at) / RFU ECM1 (11717891_a_at) / Fold change /veh ECM1 (11717891_a_at) / RFU IL23R (11748794_a_at) / Fold change /veh IL23R (11748794_a_at) / RFU TNFAIP8L3 (11732012_x_at) / Fold change /veh TNFAIP8L3 (11732012_x_at) / RFU MBOAT4 (11741988_at) / Fold change /veh MBOAT4 (11741988_at) / RFU 11764193_at / Fold change /veh 11764193_at / RFU TMEM53 (11763286_at) / Fold change /veh TMEM53 (11763286_at) / RFU MAGEB2 (11727129_at) / Fold change /veh MAGEB2 (11727129_at) / RFU TMEM200A (11744735_a_at) / Fold change /veh TMEM200A (11744735_a_at) / RFU CCDC152 (11751479_a_at) / Fold change /veh CCDC152 (11751479_a_at) / RFU FAM211A (11726209_a_at) / Fold change /veh FAM211A (11726209_a_at) / RFU RGS16 (11746705_a_at) / Fold change /veh RGS16 (11746705_a_at) / RFU VCAN (11755009_s_at) / Fold change /veh VCAN (11755009_s_at) / RFU RHOB (11743442_s_at) / Fold change /veh RHOB (11743442_s_at) / RFU RGS16 (11720943_a_at) / Fold change /veh RGS16 (11720943_a_at) / RFU RGS16 (11720944_at) / Fold change /veh RGS16 (11720944_at) / RFU, VPS4B / Fold change vs veh, VPS4B / RFU, CREB1 / Fold change vs veh, CREB1 / RFU, DNAJC13 / Fold change vs veh, DNAJC13 / RFU, GNAQ / Fold change vs veh, GNAQ / RFU, CDK5R1 / Fold change vs veh, CDK5R1 / RFU, ZRANB3 / Fold change vs veh, ZRANB3 / RFU, CUL4A / Fold change vs veh, CUL4A / RFU, CCNY / Fold change vs veh, CCNY / RFU, UFL1 / Fold change vs veh, UFL1 / RFU, COG3 / Fold change vs veh, COG3 / RFU, DIAPH2 / Fold change vs veh, DIAPH2 / RFU, SKA2 / Fold change vs veh, SKA2 / RFU, AFF3 / Fold change vs veh, AFF3 / RFU, LMF1 / Fold change vs veh, LMF1 / RFU, IPO11 / Fold change vs veh, IPO11 / RFU, DFFB / Fold change vs veh, DFFB / RFU, FOXP1 / Fold change vs veh, FOXP1 / RFU, CARD8 / Fold change vs veh, CARD8 / RFU, STRN3 / Fold change vs veh, STRN3 / RFU, ADK / Fold change vs veh, ADK / RFU, RASSF2 / Fold change vs veh, RASSF2 / RFU, WIPF1 / Fold change vs veh, WIPF1 / RFU, LARP1B / Fold change vs veh, LARP1B / RFU, RASA1 / Fold change vs veh, RASA1 / RFU, RB1 / Fold change vs veh, RB1 / RFU, PPFIA1 / Fold change vs veh, PPFIA1 / RFU, MAT2A / Fold change vs veh, MAT2A / RFU, CCT5 / Fold change vs veh, CCT5 / RFU, WDR92 / Fold change vs veh, WDR92 / RFU, CUX1 / Fold change vs veh, CUX1 / RFU, TTC7A / Fold change vs veh, TTC7A / RFU, TMEM135 / Fold change vs veh, TMEM135 / RFU, DEPTOR / Fold change vs veh, DEPTOR / RFU, CPM / Fold change vs veh, CPM / RFU, DNAJB6 / Fold change vs veh, DNAJB6 / RFU, CACNA2D3 / Fold change vs veh, CACNA2D3 / RFU, DTX4 / Fold change vs veh, DTX4 / RFU, TFCP2 / Fold change vs veh, TFCP2 / RFU, GMCL1 /// GMCL1P1 / Fold change vs veh, GMCL1 /// GMCL1P1 / RFU, AEBP2 / Fold change vs veh, AEBP2 / RFU, SNHG1 /// SNORD22 /// SNORD25 /// SNORD26 /// SNORD27 /// SNORD28 /// SNORD29 /// SNORD31 / Fold change vs veh, SNHG1 /// SNORD22 /// SNORD25 /// SNORD26 /// SNORD27 /// SNORD28 /// SNORD29 /// SNORD31 / Fold change (Aza/veh), C12orf56 (ProbeSet 11735607_a_at) / Fold change (ACY-1035/veh), C12orf56 (ProbeSet 11735607_a_at) / Fold change (Aza/veh), FGFR1OP (ProbeSet 11751329_s_at) / Fold change (ACY-1035/veh), FGFR1OP (ProbeSet 11751329_s_at) / Fold change (Aza/veh), VPS36 (ProbeSet 11739960_a_at) / Fold change (ACY-1035/veh), VPS36 (ProbeSet 11739960_a_at) / RFU SYPL1 (11715823_x_at) / Fold change /veh SYPL1 (11715823_x_at) / RFU IGFBP7 (11715501_s_at) / Fold change /veh IGFBP7 (11715501_s_at) / RFU REEP3 (11722064_at) / Fold change /veh REEP3 (11722064_at) / RFU IGLL1 (11728026_x_at) / Fold change /veh IGLL1 (11728026_x_at): dose or concentration left out as unconfirmed
Conditions: ProbeSet 11725217_a_at; LIST B

Nc1ncn([C@@H]2O[C@H](CO)[C@@H](O)[C@H]2O)c(=O)n1 [azacitidine]
Fold change vs veh, WDSUB1: 0.86
